Measured values published in paper PMC12081877 (Nature Communications, 2025).

Assays:
in vitro = details: human, Caco-2, Caco-2 permeability Papp A to B
M^pro = details: cited from earlier work

## Cn1cnc(Cn2c(=O)[nH]/c(=N\c3cc4cn(C)nc4cc3Cl)n(Cc3cc(F)c(F)cc3F)c2=O)n1 [Ensitrelvir]
In vitro
  Papp A→B: 0.42 ×10⁻⁶ cm/s

## C[C@H](NC(=O)[C@@H](c1cccnc1)N(C(=O)C(Cl)Cl)c1ccc(-c2ccccc2)cc1)c1ccccc1 [Jun9-62-2R]
M^pro
  IC50: 0.43 µM

## CC(C)(C)[C@H](NC(=O)C(F)(F)F)C(=O)N1C[C@H]2[C@@H]([C@H]1C(=O)N[C@H](C#N)C[C@@H]1CCNC1=O)C2(C)C [Nirmatrelvir]
In vitro
  Papp A→B: < 0.1 ×10⁻⁶ cm/s
